Data as given in ChEMBL document CHEMBL1141727, “Isolation and cytotoxic evaluation of marine sponge-derived norterpene peroxides” (J Nat Prod, 1998).

Experiments:
Type in all cases: functional
[1] = system: CCRF-CEM; assay: Growth inhibition of human CCRF-CEM cells
[2] = system: HL-60(TB); assay: Growth inhibition of human HL-60(TB) cells
[3] = system: K562; assay: Growth inhibition of human K562 cells
[4] = system: MOLT-4; assay: Growth inhibition of human MOLT4 cells
[5] = Growth inhibition of human […] cells
[6] = system: SR; assay: Growth inhibition of human SR cells
[7] = system: A549; assay: Growth inhibition of human A549 cells
[8] = system: EKVX; assay: Growth inhibition of human EKVX cells
[9] = system: HOP-62; assay: Growth inhibition of human HOP62 cells
[10] = system: HOP-92; assay: Growth inhibition of human HOP92 cells
[11] = system: NCI-H226; assay: Growth inhibition of human NCI-H226 cells
[12] = system: NCI-H23; assay: Growth inhibition of human NCI-H23 cells
[13] = system: NCI-H322M; assay: Growth inhibition of human NCI-H322M cells
[14] = system: NCI-H522; assay: Growth inhibition of human NCI-H522 cells
[15] = system: COLO 205; assay: Growth inhibition of human COLO205 cells
[16] = system: HCC 2998; assay: Growth inhibition of human HCC2998 cells
[17] = system: HCT-116; assay: Growth inhibition of human HCT116 cells
[18] = system: HCT-15; assay: Growth inhibition of human HCT15 cells
[19] = system: HT-29; assay: Growth inhibition of human HT-29 cells
[20] = system: KM12; assay: Growth inhibition of human KM12 cells
[21] = system: SW-620; assay: Growth inhibition of human SW620 cells
[22] = system: SF-295; assay: Growth inhibition of human SF295 cells
[23] = system: SF-539; assay: Growth inhibition of human SF539 cells
[24] = system: SNB-19; assay: Growth inhibition of human SNB19 cells
[25] = system: SNB-75; assay: Growth inhibition of human SNB75 cells
[26] = system: U-251; assay: Growth inhibition of human U251 cells
[27] = system: LOX IMVI; assay: Growth inhibition of human LOXIMVI cells
[28] = system: Malme-3M; assay: Growth inhibition of human MALME-3M cells
[29] = system: M14; assay: Growth inhibition of human M14 cells
[30] = system: SK-MEL-2; assay: Growth inhibition of human SK-MEL-2 cells
[31] = system: SK-MEL-28; assay: Growth inhibition of human SK-MEL-28 cells
[32] = system: SK-MEL-5; assay: Growth inhibition of human SK-MEL-5 cells
[33] = system: UACC-257; assay: Growth inhibition of human UACC257 cells
[34] = system: UACC-62; assay: Growth inhibition of human UACC62 cells
[35] = system: IGROV-1; assay: Growth inhibition of human IGROV1 cells
[36] = system: OVCAR-3; assay: Growth inhibition of human OVCAR-3 cells
[37] = system: OVCAR-4; assay: Growth inhibition of human OVCAR4 cells
[38] = system: OVCAR-5; assay: Growth inhibition of human OVCAR5 cells
[39] = system: OVCAR-8; assay: Growth inhibition of human OVCAR8 cells
[40] = system: SK-OV-3; assay: Growth inhibition of human SKOV3 cells
[41] = system: 786-0; assay: Growth inhibition of human 786-0 cells
[42] = system: A498; assay: Growth inhibition of human A498 cells
[43] = system: ACHN; assay: Growth inhibition of human ACHN cells
[44] = system: CAKI-1; assay: Growth inhibition of human Caki1 cells
[45] = system: RXF 393; assay: Growth inhibition of human […] cells
[46] = system: TK-10; assay: Growth inhibition of human TK10 cells
[47] = system: UO-31; assay: Growth inhibition of human UO31 cells
[48] = system: DU-145; assay: Growth inhibition of human DU145 cells
[49] = system: MCF7; assay: Growth inhibition of human MCF7 cells
[50] = Growth inhibition of human MCF7/ADR resistant cells; conditions: NCI/ADR-RES
[51] = system: MDA-MB-231; assay: Growth inhibition of human MDA-MB-231 cells
[52] = system: MDA-MB-435; assay: Growth inhibition of human MDA-MB-435 cells
[53] = system: L1210; assay: Growth inhibition of mouse L1210 cells assessed as zone units at 50 ug/disk by disk diffusion agar colony formation assay
[54] = system: P388; assay: Growth inhibition of mouse P388 cells assessed as zone units at 50 ug/disk by disk diffusion agar colony formation assay
[55] = system: PO3; assay: Growth inhibition of mouse PO3 cells assessed as zone units at 50 ug/disk by disk diffusion agar colony formation assay
[56] = Growth inhibition of human H125 cells assessed as zone units at 50 ug/disk by disk diffusion agar colony formation assay
[57] = system: NCI-H460; assay: Growth inhibition of human NCI-H460 cells
[58] = system: SF-268; assay: Growth inhibition of human SF268 cells
[59] = system: SN12C; assay: Growth inhibition of human SN12C cells
[60] = system: PC-3; assay: Growth inhibition of human PC3 cells
[61] = system: MDA-N; assay: Growth inhibition of human MDA-N cells
[62] = system: BT-549; assay: Growth inhibition of human BT549 cells
[63] = system: T47D; assay: Growth inhibition of human T47D cells
[64] = Growth inhibition of mouse M17/ADR cells assessed as zone units at 50 ug/disk by disk diffusion agar colony formation assay
[65] = Growth inhibition of human H116 cells assessed as zone units at 50 ug/disk by disk diffusion agar colony formation assay

## C=C1CCCC(C)(C)C1(O)CC/C(C)=C/CC[C@]1(C)CC[C@@H]([C@@H](C)C(=O)OC)OO1 (some centres not stated) [MUQUBILIN B]
[1]
  GI50: > 17.5 µM
[2]
  GI50: > 17.5 µM
[3]
  GI50: > 17.5 µM
[4]
  GI50: > 17.5 µM
[5]
  GI50: > 17.5 µM
[6]
  GI50: > 17.5 µM
[7]
  GI50: > 17.5 µM
[8]
  GI50: > 17.5 µM
[9]
  GI50: > 17.5 µM
[10]
  GI50: > 17.5 µM
[11]
  GI50: > 17.5 µM
[12]
  GI50: > 17.5 µM
[13]
  GI50: > 17.5 µM
[14]
  GI50: 12.8 µM
[15]
  GI50: > 17.5 µM
[16]
  GI50: > 17.5 µM
[17]
  GI50: > 17.5 µM
[18]
  GI50: > 17.5 µM
[19]
  GI50: > 17.5 µM
[20]
  GI50: > 17.5 µM
[21]
  GI50: > 17.5 µM
[22]
  GI50: > 17.5 µM
[23]
  GI50: > 17.5 µM
[24]
  GI50: > 17.5 µM
[25]
  GI50: 15 µM
[26]
  GI50: > 17.5 µM
[27]
  GI50: 5.22 µM
[28]
  GI50: > 17.5 µM
[29]
  GI50: > 17.5 µM
[30]
  GI50: > 17.5 µM
[31]
  GI50: > 17.5 µM
[32]
  GI50: > 17.5 µM
[33]
  GI50: > 17.5 µM
[34]
  GI50: > 17.5 µM
[35]
  GI50: 2.42 µM
[36]
  GI50: > 17.5 µM
[37]
  GI50: > 17.5 µM
[38]
  GI50: > 17.5 µM
[39]
  GI50: > 17.5 µM
[40]
  GI50: > 17.5 µM
[41]
  GI50: > 17.5 µM
[42]
  GI50: > 17.5 µM
[43]
  GI50: > 17.5 µM
[44]
  GI50: > 17.5 µM
[45]
  GI50: > 17.5 µM
[46]
  GI50: > 17.5 µM
[47]
  GI50: > 17.5 µM
[48]
  GI50: > 17.5 µM
[49]
  GI50: > 17.5 µM
[50]
  GI50: > 17.5 µM
[51]
  GI50: > 17.5 µM
[52]
  GI50: > 17.5 µM
[53]
  Activity: 80 Zone units
[54]
  Activity: 80 Zone units
[55]
  Activity: 90 Zone units
[56]
  Activity: 0 Zone units

## C=C1CCC[C@H]2[C@](C)(CC[C@]3(C)CC[C@@H]([C@@H](C)C(=O)O)OO3)[C@@H](C)CC[C@]12C [SIGMOSCEPTRELLIN C]
[2]
  GI50: 0.14 µM
[4]
  GI50: 0.84 µM
[7]
  GI50: 0.94 µM
[8]
  GI50: 1.09 µM
[9]
  GI50: 1.04 µM
[10]
  GI50: 1.08 µM
[11]
  GI50: > 5 µM
[12]
  GI50: 1 µM
[13]
  GI50: 4.19 µM
[57]
  GI50: 0.6 µM
[15]
  GI50: 0.97 µM
[16]
  GI50: 1.03 µM
[17]
  GI50: 1.06 µM
[18]
  GI50: 1.16 µM
[19]
  GI50: 1.03 µM
[20]
  GI50: 0.95 µM
[21]
  GI50: 1.16 µM
[58]
  GI50: 1.04 µM
[22]
  GI50: 0.82 µM
[23]
  GI50: 1.07 µM
[24]
  GI50: > 5 µM
[25]
  GI50: 0.83 µM
[26]
  GI50: 0.93 µM
[27]
  GI50: 0.16 µM
[29]
  GI50: > 5 µM
[30]
  GI50: > 5 µM
[31]
  GI50: 2.37 µM
[32]
  GI50: 1.94 µM
[33]
  GI50: > 5 µM
[35]
  GI50: 0.1 µM
[36]
  GI50: 0.99 µM
[37]
  GI50: 0.95 µM
[38]
  GI50: 2.72 µM
[39]
  GI50: 2.53 µM
[40]
  GI50: 0.97 µM
[41]
  GI50: 0.5 µM
[42]
  GI50: 1.59 µM
[43]
  GI50: 0.92 µM
[44]
  GI50: 0.6 µM
[45]
  GI50: 2.95 µM
[59]
  GI50: 0.78 µM
[46]
  GI50: 1.49 µM
[47]
  GI50: 0.9 µM
[60]
  GI50: 1.77 µM
[49]
  GI50: 3.79 µM
[50]
  GI50: 0.77 µM
[51]
  GI50: 1.81 µM
[52]
  GI50: 2.06 µM
[61]
  GI50: 0.91 µM
[62]
  GI50: 0.96 µM
[63]
  GI50: 0.86 µM
[53]
  Activity: 220 Zone units
[54]
  Activity: 220 Zone units
[55]
  Activity: 190 Zone units
[64]
  Activity: 220 Zone units
[65]
  Activity: 230 Zone units
